Measurements taken from PubChem BioAssay AID200 (DTP/NCI, 2004).
Several values for one entry are separate records, joined by “and”; a condition that tells them apart may be missing. Equal entries are not always repeated. Toxic doses and inconclusive results are not listed.

Test system: B6C3F1 mice, B16 melanoma ip, median survival T/C
Experiment: NCI In Vivo Anticancer Drug Screen. Data for tumor model B16 Melanoma (intraperitoneal) in B6C3F1 mice
Conditions: endpoint: median survival time, higher = longer survival
Procedure, shortened: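 Transplantable tumor in mice; treated vs vehicle control groups; survival or tumor size measured; value = T/C ratio.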

[1] = dose: 12.5 mg/kg/injection, schedule: Q01DX009 (ip), vehicle: Klucel (hydroxypropylcellulose) (HPC)
[2] = dose: 25.0 mg/kg/injection, schedule: Q01DX009 (ip), vehicle: Klucel (hydroxypropylcellulose) (HPC)
[3] = dose: 50.0 mg/kg/injection, schedule: Q01DX009 (ip), vehicle: Klucel (hydroxypropylcellulose) (HPC)
[4] = dose: 100.0 mg/kg/injection, schedule: Q01DX009 (ip), vehicle: Klucel (hydroxypropylcellulose) (HPC)
[5] = dose: 200.0 mg/kg/injection, schedule: Q01DX009 (ip), vehicle: Klucel (hydroxypropylcellulose) (HPC)
[6] = dose: 400.0 mg/kg/injection, schedule: Q01DX009 (ip), vehicle: Klucel (hydroxypropylcellulose) (HPC)
[7] = dose: 25.0 mg/kg/injection, schedule: Q01DX009 (ip), vehicle: saline with Tween-80
[8] = dose: 50.0 mg/kg/injection, schedule: Q01DX009 (ip), vehicle: saline with Tween-80
[9] = dose: 100.0 mg/kg/injection, schedule: Q01DX009 (ip), vehicle: saline with Tween-80
[10] = dose: 200.0 mg/kg/injection, schedule: Q01DX009 (ip), vehicle: saline with Tween-80
[11] = dose: 12.5 mg/kg/injection, schedule: Q01DX009 (ip), vehicle: saline with Tween-80
[12] = dose: 400.0 mg/kg/injection, schedule: Q01DX009 (ip), vehicle: saline with Tween-80
[13] = dose: 12.5 mg/kg/injection, schedule: Q01DX009 (ip), vehicle: saline
[14] = dose: 25.0 mg/kg/injection, schedule: Q01DX009 (ip), vehicle: saline
[15] = dose: 50.0 mg/kg/injection, schedule: Q01DX009 (ip), vehicle: saline
[16] = dose: 100.0 mg/kg/injection, schedule: Q01DX009 (ip), vehicle: saline
[17] = dose: 6.25 mg/kg/injection, schedule: Q01DX009 (ip), vehicle: Klucel (hydroxypropylcellulose) (HPC)

In the case of `C=C(NC(=O)C(=C)NC(=O)c1csc(C2=NC3c4csc(n4)C4NC(=O)c5csc(n5)C(C(C)(O)C(C)O)NC(=O)C5CSC(=N5)/C(=C/C)NC(=O)C(C(C)O)NC(=O)c5csc(n5)C3(CC2)NC(=O)C(C)NC(=O)C(=C)NC(=O)C(C)NC(=O)C(C(C)CC)NC2C=Cc3c(C(C)O)cc(nc3C2O)C(=O)OC4C)n1)C(N)=O` (centres undefined), the T/C [1] is reported as 116 % of control, the T/C [2] is reported as 104 % of control and the T/C [3] is reported as 105 % of control. For the same molecule, the T/C [4] was 107 % of control, the T/C [5] was 96 % of control and the T/C [6] was 99 % of control.

For `O=c1ccc(N=Nc2ccccc2)ccc1Cl`, the T/C (dose: 0.25 mg/kg/injection, schedule: Q01DX009 (ip), vehicle: Klucel (hydroxypropylcellulose) (HPC)) was 98 % of control, the T/C (dose: 0.5 mg/kg/injection, schedule: Q01DX009 (ip), vehicle: Klucel (hydroxypropylcellulose) (HPC)) was 93 % of control and the T/C (dose: 1.0 mg/kg/injection, schedule: Q01DX009 (ip), vehicle: Klucel (hydroxypropylcellulose) (HPC)) was 100 % of control.

For `O=C(Oc1ccccc1)c1cc(O)c(O)c(O)c1`, the T/C [7] was 98 % of control, the T/C [8] was 97 % of control and the T/C [9] was 97 % of control. For the same molecule, the T/C [10] was 87 % of control.

`[O-][n+]1c(CN2CCCCC2)nc2cccc3c2c1-c1ccccc1-3` was tested, and the T/C [11] was 98 % of control, the T/C [7] was 88 % of control and the T/C [8] was 102 % of control. The T/C [9] was 91 % of control and the T/C [12] was 103 % of control.

In the case of `NNc1nncc2ccccc12`, the T/C [13] is reported as 93 % of control, the T/C [14] is reported as 98 % of control and the T/C [15] is reported as 93 % of control.

With `Nc1nc2ncc(CNc3ccc(C(=O)NC(CCC(=O)O)C(=O)O)cc3)nc2c(=O)[nH]1` (centres undefined) the T/C (dose: 6.25 mg/kg/injection, schedule: Q01DX009 (ip), vehicle: saline) was 96 % of control, the T/C [13] was 91 % of control and the T/C [14] was 108 % of control. The T/C [15] was 96 % of control and the T/C [16] was 101 % of control.

For `O=c1nc(Oc2ccccc2)nc2ncccn12`, the T/C (dose: 3.12 mg/kg/injection, schedule: Q01DX009 (ip), vehicle: saline with Tween-80) was 108 % of control and 101 % of control and 102 % of control.

For `O=C(NC(Cc1cn(Cc2ccccc2)cn1)C(=O)O)OCC1c2ccccc2-c2ccccc21` (centres undefined), the T/C [4] was 111 % of control, the T/C [5] was 103 % of control and the T/C [6] was 115 % of control.

With `Cn1nnc2c1C(=O)c1ccccc1C2=O` the T/C [8] was 88 % of control, the T/C [9] was 90 % of control and the T/C [10] was 89 % of control.

With `CC1OC(=O)C(C(C)C)NC(=O)C(C(C)C)OC(=O)C(C(C)C)NC(=O)C(C)OC(=O)C(C(C)C)NC(=O)C(C(C)C)OC(=O)C(C(C)C)NC(=O)C(C)OC(=O)C(C(C)C)NC(=O)C(C(C)C)OC(=O)C(C(C)C)NC1=O` (centres undefined) the T/C (dose: 0.75 mg/kg/injection, schedule: Q01DX009 (oral), vehicle: Klucel (hydroxypropylcellulose) (HPC)) was 104 % of control, the T/C (dose: 1.5 mg/kg/injection, schedule: Q01DX009 (oral), vehicle: Klucel (hydroxypropylcellulose) (HPC)) was 104 % of control and the T/C (dose: 3.0 mg/kg/injection, schedule: Q01DX009 (oral), vehicle: Klucel (hydroxypropylcellulose) (HPC)) was 105 % of control. For the same molecule, the T/C (dose: 6.0 mg/kg/injection, schedule: Q01DX009 (oral), vehicle: Klucel (hydroxypropylcellulose) (HPC)) was 100 % of control, the T/C (dose: 12.0 mg/kg/injection, schedule: Q01DX009 (oral), vehicle: Klucel (hydroxypropylcellulose) (HPC)) was 105 % of control and the T/C (dose: 24.0 mg/kg/injection, schedule: Q01DX009 (oral), vehicle: Klucel (hydroxypropylcellulose) (HPC)) was 104 % of control.

With `CCOc1ccc2c(c1)/C(=C\C=C\C1CC(C)C3CC(OCC)CCC3N1CC)CC(C)N2CC` (centres undefined) the T/C (dose: 1.25 mg/kg/injection, schedule: Q01DX009 (ip), vehicle: saline + alcohol) was 97 % of control, the T/C (dose: 2.5 mg/kg/injection, schedule: Q01DX009 (ip), vehicle: saline + alcohol) was 100 % of control and the T/C (dose: 5.0 mg/kg/injection, schedule: Q01DX009 (ip), vehicle: saline + alcohol) was 113 % of control.

In the case of `CC12CCC3C(CCC4CC(OC(=O)Cc5ccc(N(CCCl)CCCl)cc5)CCC43C)C1CCC(=O)N2` (centres undefined), the T/C (dose: 1.5 mg/kg/injection, schedule: Q01DX009 (ip), vehicle: saline with Tween-80) is reported as 113 % of control, the T/C (dose: 3.0 mg/kg/injection, schedule: Q01DX009 (ip), vehicle: saline with Tween-80) is reported as 106 % of control and the T/C (dose: 12.0 mg/kg/injection, schedule: Q01DX009 (ip), vehicle: saline with Tween-80) is reported as 167 % of control.

`CCn1c(-c2ccc(OC(C)=O)cc2)c(C)c2cc(OC(C)=O)ccc21` was tested, and the T/C [2] was 104 % of control, the T/C [3] was 97 % of control and the T/C [4] was 97 % of control. For the same molecule, the T/C [5] was 87 % of control and the T/C [6] was 107 % of control.

With `NC=NCC(=O)O` the T/C [15] was 108 % of control, the T/C [16] was 105 % of control and the T/C (dose: 200.0 mg/kg/injection, schedule: Q01DX009 (ip), vehicle: saline) was 97 % of control.

For `COc1ccc2[nH]c3c(c2c1)CCNC3CC(C)CCC=C(C)C` (centres undefined), the T/C [17] was 99 % of control, the T/C [1] was 88 % of control and the T/C [2] was 97 % of control. For the same molecule, the T/C [3] was 102 % of control and the T/C [4] was 105 % of control.

With `C(C#CCN1CCOCC1)#CCN1CCOCC1` the T/C [1] was 102 % of control, the T/C [11] was 105 % of control and the T/C [2] was 110 % of control. The T/C [7] was 106 % of control, the T/C [3] was 105 % of control and the T/C [8] was 106 % of control. For the same molecule, the T/C [4] was 121 % of control, the T/C [9] was 111 % of control and the T/C [5] was 107 % of control. For the same molecule, the T/C [10] was 98 % of control, the T/C [6] was 91 % of control and the T/C [12] was 86 % of control.

In the case of `CNC(=O)OCc1c(COC(=O)NC)c(-c2ccccc2)n(C)c1-c1ccccc1`, the T/C (dose: 12.5 mg/kg/injection, schedule: Q01DX009 (ip), vehicle: distilled water + Tween-80) is reported as 172 % of control and the T/C (dose: 25.0 mg/kg/injection, schedule: Q01DX009 (ip), vehicle: distilled water + Tween-80) is reported as 177 % of control.

For `C/C=C(\C)C(=O)N[C@@H](c1ccccc1)[C@@H](O)C(=O)OC1C[C@@]2(O)[C@@H](OC(=O)c3ccccc3)[C@@H]3[C@]4(OC(C)=O)CO[C@@H]4C[C@H](O)[C@@]3(C)C(=O)[C@H](OC(C)=O)C(=C1C)C2(C)C` (some centres undefined), the T/C (dose: 0.5 mg/kg/injection, schedule: Q01DX009 (ip), vehicle: saline + Tween-80 + alcohol) was 113 % of control, the T/C (dose: 1.0 mg/kg/injection, schedule: Q01DX009 (ip), vehicle: saline + Tween-80 + alcohol) was 106 % of control and the T/C (dose: 4.0 mg/kg/injection, schedule: Q01DX009 (ip), vehicle: saline + Tween-80 + alcohol) was 172 % of control.

In the case of `O=NN(CCCl)C(=O)Oc1ccc(OC(=O)N(CCCl)N=O)cc1`, the T/C (dose: 3.12 mg/kg/injection, schedule: Q01DX009 (ip), vehicle: Klucel (hydroxypropylcellulose) (HPC)) is reported as 112 % of control, the T/C [17] is reported as 107 % of control and the T/C [1] is reported as 107 % of control.

`C=C1C(=O)O[C@@H]2C[C@@H](C)[C@@H]3C=CC(=O)[C@@]3(C)[C@@H](OC(=O)CC(=O)O[C@H]3[C@@H]4C(=C)C(=O)O[C@@H]4C[C@@H](C)[C@@H]4C=CC(=O)[C@]43C)[C@H]12` was tested, and the T/C (dose: 0.25 mg/kg/injection, schedule: Q01DX009 (ip), vehicle: saline with Tween-80) was 88 % of control, the T/C (dose: 0.5 mg/kg/injection, schedule: Q01DX009 (ip), vehicle: saline with Tween-80) was 96 % of control and the T/C (dose: 1.0 mg/kg/injection, schedule: Q01DX009 (ip), vehicle: saline with Tween-80) was 102 % of control. The T/C (dose: 2.0 mg/kg/injection, schedule: Q01DX009 (ip), vehicle: saline with Tween-80) was 110 % of control and the T/C (dose: 4.0 mg/kg/injection, schedule: Q01DX009 (ip), vehicle: saline with Tween-80) was 116 % of control.

With `Nc1n[nH]c2ccccc12` the T/C (dose: 25.0 mg/kg/injection, schedule: Q01DX009 (ip), vehicle: acid diluted with saline) was 101 % of control, the T/C (dose: 50.0 mg/kg/injection, schedule: Q01DX009 (ip), vehicle: acid diluted with saline) was 102 % of control and the T/C (dose: 100.0 mg/kg/injection, schedule: Q01DX009 (ip), vehicle: acid diluted with saline) was 95 % of control. For the same molecule, the T/C (dose: 200.0 mg/kg/injection, schedule: Q01DX009 (ip), vehicle: acid diluted with saline) was 88 % of control.

For `C[n+]1cccc(NC(=O)c2ccc(NC(=O)C34CCC(C(=O)Nc5ccc(C(=O)Nc6ccc[n+](C)c6)cc5)(CC3)CC4)cc2)c1`, the T/C (dose: 2.5 mg/kg/injection, schedule: Q01DX009 (ip), vehicle: saline with Tween-80) was 114 % of control, the T/C (dose: 5.0 mg/kg/injection, schedule: Q01DX009 (ip), vehicle: saline with Tween-80) was 111 % of control and 117 % of control and 118 % of control and the T/C (dose: 10.0 mg/kg/injection, schedule: Q01DX009 (ip), vehicle: saline with Tween-80) was 119 % of control. For the same molecule, the T/C (dose: 20.0 mg/kg/injection, schedule: Q01DX009 (ip), vehicle: saline with Tween-80) was 121 % of control and 99 % of control.

`COc1cc2c(c3c1c(=O)c1cccc(F)c1n3C)C=CC(C)(C)O2` was tested, and the T/C [2] was 109 % of control, the T/C [3] was 119 % of control and the T/C [4] was 88 % of control.
